Data published in ChEMBL document CHEMBL3797105, “Investigation of triazole-linked indole and oxindole glycoconjugates as potential anticancer agents: novel Akt/PKB signaling pathway inhibitors” (Medchemcomm, 2016).

Assays:
[1] = Cytotoxicity against human DU145 cells after 48 hrs by sulforhodamine B assay; type: functional, cell-based; settings: DU-145, 48 h
[2] = system: MCF7; test: Cytotoxicity against human MCF7 cells after 48 hrs by sulforhodamine B assay; type: functional, cell-based; settings: MCF7, 48 h
[3] = system: A549; test: Cytotoxicity against human A549 cells after 48 hrs by sulforhodamine B assay; type: functional, cell-based; settings: A549, 48 h
[4] = Cytotoxicity against mouse NIH/3T3 cells after 48 hrs by sulforhodamine B assay; settings: NIH3T3, 48 h
[5] = system: HeLa; test: Cytotoxicity against human HeLa cells after 48 hrs by sulforhodamine B assay; type: functional, cell-based

## O=C(/C=C/c1c[nH]c2ccccc12)c1ccccc1
[1]
  IC50: > 200 µM
[2]
  IC50: > 200 µM
[3]
  IC50: > 200 µM
[4]
  IC50: > 200 µM
[5]
  IC50: > 200 µM

## CC(=O)OC[C@H]1O[C@@H](n2cc(CN3C(=O)/C(=C/c4ccc(N(C)C)cc4)c4ccccc43)nn2)[C@H](OC(C)=O)[C@@H](OC(C)=O)[C@@H]1OC(C)=O
[1]
  IC50: 11.2 µM
[2]
  IC50: 25.2 µM
[3]
  IC50: 19.4 µM
[4]
  IC50: 12.7 µM
[5]
  IC50: 26.3 µM

## CC(=O)OC[C@H]1O[C@@H](OC(C)=O)[C@H](OC(C)=O)[C@@H](OC(C)=O)[C@@H]1OC(C)=O
[1]
  IC50: > 200 µM
[2]
  IC50: > 200 µM
[3]
  IC50: > 200 µM
[4]
  IC50: > 200 µM
[5]
  IC50: > 200 µM

## CC(=O)OC[C@H]1O[C@@H](n2cc(CN3C(=O)/C(=C\c4ccc5ccccc5c4)c4ccccc43)nn2)[C@H](OC(C)=O)[C@@H](OC(C)=O)[C@@H]1OC(C)=O
[1]
  IC50: > 100 µM
[2]
  IC50: 46.5 µM
[3]
  IC50: 62.2 µM
[4]
  IC50: 80 µM
[5]
  IC50: > 100 µM

## CC(=O)OC[C@H]1O[C@@H](n2cc(Cn3cc(/C=C4/C(=O)Nc5ccc(F)cc54)c4ccccc43)nn2)[C@H](OC(C)=O)[C@@H](OC(C)=O)[C@@H]1OC(C)=O
[1]
  IC50: 87.4 µM
[2]
  IC50: 40.4 µM
[3]
  IC50: 36.9 µM
[4]
  IC50: 62.5 µM
[5]
  IC50: > 200 µM

## CC(=O)OC[C@H]1O[C@@H](n2cc(CN3C(=O)/C(=C\c4cccs4)c4ccccc43)nn2)[C@H](OC(C)=O)[C@@H](OC(C)=O)[C@@H]1OC(C)=O
[1]
  IC50: 22.8 µM
[2]
  IC50: 36.1 µM
[3]
  IC50: 16.1 µM
[4]
  IC50: 14.6 µM
[5]
  IC50: > 100 µM

## CC(=O)OC[C@H]1O[C@@H](n2cc(CN3C(=O)/C(=C\C=C\c4ccccc4)c4ccccc43)nn2)[C@H](OC(C)=O)[C@@H](OC(C)=O)[C@@H]1OC(C)=O
[1]
  IC50: 19.5 µM
[2]
  IC50: 34.1 µM
[3]
  IC50: 58.4 µM
[4]
  IC50: 25.9 µM
[5]
  IC50: 98.1 µM

## CC(=O)OC[C@H]1O[C@@H](n2cc(Cn3cc(C=O)c4ccccc43)nn2)[C@H](OC(C)=O)[C@@H](OC(C)=O)[C@@H]1OC(C)=O
[1]
  IC50: 58.7 µM
[2]
  IC50: 25.2 µM
[3]
  IC50: > 200 µM
[4]
  IC50: > 200 µM
[5]
  IC50: 44.5 µM

## COc1ccc2c(c1)c(C=O)cn2Cc1cn([C@@H]2O[C@H](COC(C)=O)[C@@H](OC(C)=O)[C@H](OC(C)=O)[C@H]2OC(C)=O)nn1
[1]
  IC50: 136 µM
[2]
  IC50: > 200 µM
[3]
  IC50: 106 µM
[4]
  IC50: > 200 µM
[5]
  IC50: > 200 µM

## CCC/C=C1/C(=O)N(Cc2cn([C@@H]3O[C@H](COC(C)=O)[C@@H](OC(C)=O)[C@H](OC(C)=O)[C@H]3OC(C)=O)nn2)c2ccccc21
[1]
  IC50: 19.7 µM
[2]
  IC50: 22.6 µM
[3]
  IC50: 24.1 µM
[4]
  IC50: > 100 µM
[5]
  IC50: > 100 µM

## CC(=O)OC[C@H]1O[C@@H](n2cc(CN3C(=O)/C(=C\c4ccc(N(C)C)cc4)c4ccccc43)nn2)[C@H](OC(C)=O)[C@@H](OC(C)=O)[C@@H]1OC(C)=O
[1]
  IC50: 10.1 µM
[2]
  IC50: 29.8 µM
[3]
  IC50: 17.7 µM
[4]
  IC50: 17 µM
[5]
  IC50: 25 µM

## COc1cccc2c1C(=O)c1c(O)c3c(c(O)c1C2=O)C[C@@](O)(C(=O)CO)C[C@@H]3O[C@H]1C[C@H](N)[C@H](O)[C@H](C)O1 [DOXORUBICIN]
[1]
  IC50: 5.4 µM
[2]
  IC50: 6.1 µM
[4]
  IC50: 10.1 µM
[5]
  IC50: 7.2 µM

## CC(=O)OC[C@H]1O[C@@H](n2cc(CN3C(=O)/C(=C/c4ccc5ccccc5c4)c4ccccc43)nn2)[C@H](OC(C)=O)[C@@H](OC(C)=O)[C@@H]1OC(C)=O
[1]
  IC50: 43.7 µM
[2]
  IC50: 32.7 µM
[3]
  IC50: 30.9 µM
[4]
  IC50: 28.4 µM
[5]
  IC50: > 100 µM

## COc1ccc2c(c1)c(/C=C1/C(=O)Nc3ccc(F)cc31)cn2Cc1cn([C@@H]2O[C@H](COC(C)=O)[C@@H](OC(C)=O)[C@H](OC(C)=O)[C@H]2OC(C)=O)nn1
[1]
  IC50: > 200 µM
[2]
  IC50: > 200 µM
[3]
  IC50: > 200 µM
[4]
  IC50: > 200 µM
[5]
  IC50: > 200 µM

## CC(=O)OC[C@H]1O[C@@H](n2cc(Cn3cc([N+](=O)[O-])c4ccccc43)nn2)[C@H](OC(C)=O)[C@@H](OC(C)=O)[C@@H]1OC(C)=O
[1]
  IC50: 60.9 µM
[2]
  IC50: > 200 µM
[3]
  IC50: 93.2 µM
[4]
  IC50: 20.5 µM
[5]
  IC50: > 200 µM

## CC(=O)OC[C@H]1O[C@@H](n2cc(Cn3cc(/C=C/C(=O)c4cccnc4)c4ccccc43)nn2)[C@H](OC(C)=O)[C@@H](OC(C)=O)[C@@H]1OC(C)=O
[1]
  IC50: 29 µM
[2]
  IC50: 22.3 µM
[3]
  IC50: 39.8 µM
[4]
  IC50: > 200 µM
[5]
  IC50: > 200 µM

## COc1ccc2c(c1)c(/C=N/O)cn2Cc1cn([C@@H]2O[C@H](COC(C)=O)[C@@H](OC(C)=O)[C@H](OC(C)=O)[C@H]2OC(C)=O)nn1
[1]
  IC50: 88.4 µM
[2]
  IC50: 51 µM
[3]
  IC50: > 200 µM
[4]
  IC50: 26.2 µM
[5]
  IC50: > 200 µM

## CC(=O)OC[C@H]1O[C@@H](n2cc(Cn3cc(/C=C/C(=O)c4c5ccccc5cc5ccccc45)c4ccccc43)nn2)[C@H](OC(C)=O)[C@@H](OC(C)=O)[C@@H]1OC(C)=O
[1]
  IC50: 58.1 µM
[2]
  IC50: 44 µM
[3]
  IC50: 46.8 µM
[4]
  IC50: > 200 µM
[5]
  IC50: 165 µM

## CC(=O)OC[C@H]1O[C@@H](n2cc(Cn3cc(/C=C4/C(=O)Nc5ccccc54)c4ccccc43)nn2)[C@H](OC(C)=O)[C@@H](OC(C)=O)[C@@H]1OC(C)=O
[1]
  IC50: > 200 µM
[2]
  IC50: 22.2 µM
[3]
  IC50: > 200 µM
[4]
  IC50: > 200 µM
[5]
  IC50: > 200 µM

## COc1ccc(/C=C2\C(=O)N(Cc3cn([C@@H]4O[C@H](COC(C)=O)[C@@H](OC(C)=O)[C@H](OC(C)=O)[C@H]4OC(C)=O)nn3)c3ccccc32)cc1OC
[1]
  IC50: 24.9 µM
[2]
  IC50: 23.5 µM
[3]
  IC50: 23.3 µM
[4]
  IC50: > 100 µM
[5]
  IC50: 63.4 µM

## CC(=O)OC[C@H]1O[C@@H](n2cc(CN3C(=O)/C(=C/c4ccccc4)c4ccccc43)nn2)[C@H](OC(C)=O)[C@@H](OC(C)=O)[C@@H]1OC(C)=O
[1]
  IC50: 22.8 µM
[2]
  IC50: 30.2 µM
[3]
  IC50: 20.6 µM
[4]
  IC50: > 100 µM
[5]
  IC50: 37.1 µM

## CC(=O)OC[C@H]1O[C@@H](n2cc(CN3C(=O)/C(=C/C=C/c4ccccc4)c4ccccc43)nn2)[C@H](OC(C)=O)[C@@H](OC(C)=O)[C@@H]1OC(C)=O
[1]
  IC50: 17.1 µM
[2]
  IC50: 53.2 µM
[3]
  IC50: > 100 µM
[4]
  IC50: 12.3 µM
[5]
  IC50: > 100 µM

## CC(=O)OC[C@H]1O[C@@H](n2cc(Cn3cc(C(C)=O)c4ccccc43)nn2)[C@H](OC(C)=O)[C@@H](OC(C)=O)[C@@H]1OC(C)=O
[1]
  IC50: 75.2 µM
[2]
  IC50: > 200 µM
[3]
  IC50: > 200 µM
[4]
  IC50: > 200 µM
[5]
  IC50: > 200 µM

## CC(=O)OC[C@H]1O[C@@H](n2cc(CN3C(=O)/C(=C\c4ccco4)c4ccccc43)nn2)[C@H](OC(C)=O)[C@@H](OC(C)=O)[C@@H]1OC(C)=O
[1]
  IC50: 16.9 µM
[2]
  IC50: 38.2 µM
[3]
  IC50: 41.1 µM
[4]
  IC50: 13.3 µM
[5]
  IC50: > 100 µM

## CC(=O)OC[C@H]1O[C@@H](n2cc(CN3C(=O)/C(=C/c4cccs4)c4ccccc43)nn2)[C@H](OC(C)=O)[C@@H](OC(C)=O)[C@@H]1OC(C)=O
[1]
  IC50: 23.4 µM
[2]
  IC50: 28.1 µM
[3]
  IC50: 20.8 µM
[4]
  IC50: 48.1 µM
[5]
  IC50: 36.9 µM

## CC(=O)OC[C@H]1O[C@@H](n2cc(CN3C(=O)/C(=C/c4ccccn4)c4ccccc43)nn2)[C@H](OC(C)=O)[C@@H](OC(C)=O)[C@@H]1OC(C)=O
[1]
  IC50: 48.3 µM
[2]
  IC50: 32.1 µM
[3]
  IC50: 26.1 µM
[4]
  IC50: > 100 µM
[5]
  IC50: 51.7 µM

## CC(=O)OC[C@H]1O[C@@H](n2cc(CN3C(=O)/C(=C\c4ccc(C)cc4)c4ccccc43)nn2)[C@H](OC(C)=O)[C@@H](OC(C)=O)[C@@H]1OC(C)=O
[1]
  IC50: 9.4 µM
[2]
  IC50: > 100 µM
[3]
  IC50: 16.5 µM
[4]
  IC50: 9 µM
[5]
  IC50: > 100 µM

## CC(=O)OC[C@H]1O[C@@H](n2cc(CN3C(=O)/C(=C\c4ccccc4)c4ccccc43)nn2)[C@H](OC(C)=O)[C@@H](OC(C)=O)[C@@H]1OC(C)=O
[1]
  IC50: 24.1 µM
[2]
  IC50: 24.3 µM
[3]
  IC50: 17.9 µM
[4]
  IC50: 22.8 µM
[5]
  IC50: 33.3 µM

## CCC/C=C1\C(=O)N(Cc2cn([C@@H]3O[C@H](COC(C)=O)[C@@H](OC(C)=O)[C@H](OC(C)=O)[C@H]3OC(C)=O)nn2)c2ccccc21
[1]
  IC50: 26.6 µM
[2]
  IC50: 25 µM
[3]
  IC50: 40.4 µM
[4]
  IC50: > 100 µM
[5]
  IC50: 46.3 µM

## CC(=O)OC[C@H]1O[C@@H](n2cc(CN3C(=O)/C(=C/c4ccco4)c4ccccc43)nn2)[C@H](OC(C)=O)[C@@H](OC(C)=O)[C@@H]1OC(C)=O
[1]
  IC50: 10 µM
[2]
  IC50: 29.1 µM
[3]
  IC50: 14.5 µM
[4]
  IC50: 31.8 µM
[5]
  IC50: 29.9 µM

## Cc1ccc(/C=C2/C(=O)Nc3ccccc32)cc1
[1]
  IC50: > 100 µM
[2]
  IC50: > 100 µM
[3]
  IC50: > 100 µM
[4]
  IC50: > 100 µM
[5]
  IC50: > 100 µM
